This is an account of results in USRE47689E1, “Compounds for treating spinal muscular atrophy” (PTC Therapeutics, Inc., priority 2011, dated 2019).

Like-named read-outs stand apart in the source and are kept apart here.

The subject of one data set is Smn protein. Description: Smn protein assay in cultured cells (SMN HTRF). The class given is cell-based, human. The conditions noted are these: for EC1.5x (concentration giving 1.5-fold Smn protein increase): read-out: EC1.5x for Smn protein expression. Put shortly:
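Smn in SMA fibroblast lysates, measured by anti-SMN HTRF after 48 h compound exposure; EC1.5x from fold change over vehicle.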

Data set [1] relates to SMN2 minigene (full length SMN2 minigene mRNA containing SMN2 exon 7). In words: SMN2 minigene mRNA splicing RT-qPCR assay in cultured cells. It counts as cell-based, human. The conditions noted are these: for EC (1.5-fold): Homo sapiens, HEK293-H, read-out: EC1.5x for production of full length SMN2 mRNA. Put shortly:
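Full-length SMN2 minigene mRNA (exon 7 included), minigene-specific and not endogenous SMN, quantified by RT-qPCR multiplexed with GAPDH in stably transfected HEK293H cells after 24 h compound exposure at 37° C. Abundance from efficiency-corrected Ct, normalized to GAPDH and vehicle; EC1.5x reported as star bins.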

Where [2] appears, read: SMA Type 1 patient fibroblast cells (GM03813), 48 hours, 7-point concentration curve, SMN HTRF, concentration producing 1.5 times Smn protein vs DMSO vehicle control.
Where [3] appears, read: SMA patient fibroblast cells, 48 hours, 7-point concentration data, fold increase relative to vehicle control (SMN HTRF).
Where [4] appears, read: HEK293H cells stably transfected with SMN2-A minigene, 24 hours, 7-point concentration curve, 1.5-fold relative to vehicle-treated cells.

For `Cc1cn2cc(-c3cc4ccc(CCNC(C)C)cc4oc3=O)nc2c(C)n1` [Compound 865, 3-(6,8-dimethylimidazo[1,2-a]pyrazin-2-yl)-7-[2-(propan-2-ylamino)ethyl]-2H-chromen-2-one], the melting point fell in the range of 192 to 197 °C. Further, the EC1.5x (concentration giving 1.5-fold Smn protein increase) with Smn protein (setting [2]) lay in the range of 1000 to 3000 nM. For the same compound, in the data set on Smn protein (setting [3]), the “maximum fold (Fold) increase of Smn protein” value (“maximum fold (Fold) increase” for short) was “**** (fold increase between >1.5 and ≤1.65)”. The EC (1.5-fold) in data set [1] (setting [4]) is less than 0.1 µM.
Compound `O=c1oc2cc(N3CCN4CCC3CC4)ccc2cc1-c1cn2ccsc2n1` [Compound 438, 7-(1,4-diazabicyclo[3.2.2]non-4-yl)-3-(imidazo[2,1-b][1,3]thiazol-6-yl)-2H-chromen-2-one] gave a melting point of more than 300 °C. In the data set with Smn protein, the “maximum fold (Fold) increase” value is “*** (key: *: maximum fold increase of ≤1.2; **: fold increase between >1.2 and ≤1.35; ***: fold increase between >1.35 and ≤1.5; ****: fold increase between >1.5 and ≤1.65; *****: fold increase >1.65)”; the EC1.5x (concentration giving 1.5-fold Smn protein increase) lay in the range of 1000 to 3000 nM. Moreover, in data set [1] (24 h), the EC (1.5-fold) lay within 0.1 to 0.3 µM.
Turning to `O=c1oc2cc(N3CC4CCC3CN4)ccc2cc1-c1cn2cccc(Cl)c2n1` (centres unmarked) [Compound 527, 3-(8-chloroimidazo[1,2-a]pyridin-2-yl)-7-(2,5-diazabicyclo[2.2.2]oct-2-yl)-2H-chromen-2-one], the melting point lay in the range of 178 to 182 °C. In addition, in the data set on Smn protein (setting [2]), the EC1.5x (concentration giving 1.5-fold Smn protein increase) is less than 300 nM. The “maximum fold (Fold) increase” value with Smn protein (setting [3]) was “**** (fold increase between >1.5 and ≤1.65)”. For the same compound, the EC (1.5-fold) in data set [1] (setting [4]) lay in the range of 0.1 to 0.3 µM.
Turning to `COc1cc(OC)cc(-c2cc3ccc(N4CCCNCC4)cc3oc2=O)c1` [Compound 387, 7-(1,4-diazepan-1-yl)-3-(3,5-dimethoxyphenyl)-2H-chromen-2-one], the melting point lay in the range of 238 to 240 °C. Also, the “maximum fold (Fold) increase” value with Smn protein (setting [3]) is “* (maximum fold increase of ≤1.2)”. Also, in data set [1] (setting [4]), the EC (1.5-fold) is 3 to 30 µM.
As to `O=c1oc2cc(N3CCNCC3)cc(F)c2cc1-c1nc2ccccc2[nH]1` [Compound 375, 3-(1H-benzimidazol-2-yl)-5-fluoro-7-(piperazin-1-yl)-2H-chromen-2-one], the melting point fell in the range of 245 to 250 °C. The “maximum fold (Fold) increase” value with Smn protein (setting [3]) is “** (fold increase between >1.2 and ≤1.35)”. For the same compound, the EC (1.5-fold) in data set [1] (setting [4]) fell in the range of 0.3 to 1 µM.
`COc1ccc(-c2cc3ccc(N4CCNCC4)cc3oc2=O)cc1` [Compound 447, 3-(4-methoxyphenyl)-7-(piperazin-1-yl)-2H-chromen-2-one] returned a melting point of 211 to 213 °C. In the data set with Smn protein (setting [3]), the “maximum fold (Fold) increase” value is “* (maximum fold increase of ≤1.2)”. Further, in data set [1] (setting [4]), the EC (1.5-fold) is 1 to 3 µM.
As to `Cc1cc2cc(-c3cc4ccc(N5CCN(C)[C@@H](C)C5)cc4oc3=O)oc2c(C)n1` [Compound 805, 3-(5,7-dimethylfuro[2,3-c]pyridin-2-yl)-7-[(3S)-3,4-dimethylpiperazin-1-yl]-2H-chromen-2-one], the melting point lay in the range of 200 to 205 °C. Also, the EC1.5x (concentration giving 1.5-fold Smn protein increase) with Smn protein (setting [2]) was less than 300 nM. In addition, in the data set on Smn protein (setting [3]), the “maximum fold (Fold) increase” value is listed as “***** (fold increase >1.65)”. Further, the EC (1.5-fold) in data set [1] (setting [4]) is less than 0.1 µM.
With `Cc1cn2cc(-c3cc4ccc(CCCN)cc4oc3=O)nc2c(C)n1` [Cpd 927, 7-(3-aminopropyl)-3-(6,8-dimethylimidazo[1,2-a]pyrazin-2-yl)-2H-chromen-2-one], the melting point lay within 212 to 216 °C. The “maximum fold (Fold) increase” value in the data set with Smn protein (setting [3]) was “** (fold increase between >1.2 and ≤1.35)”. In data set [1] (setting [4]), the EC (1.5-fold) lay within 1 to 3 µM.
Turning to `CCN(CC)C1CN(c2ccc3cc(-c4cn5cc(C)nc(C)c5n4)c(=O)oc3c2)C1` [Compound 944, 7-[3-(diethylamino)azetidin-1-yl]-3-(6,8-dimethylimidazo[1,2-a]pyrazin-2-yl)-2H-chromen-2-one], the melting point lay in the range of 218 to 220 °C. Further, the EC1.5x (concentration giving 1.5-fold Smn protein increase) in the data set with Smn protein (setting [2]) is 300 to 1000 nM. In the data set on Smn protein (setting [3]), the “maximum fold (Fold) increase” value was “**** (fold increase between >1.5 and ≤1.65)”. For the same compound, in data set [1] (setting [4]), the EC (1.5-fold) was less than 0.1 µM.
Consider `CN1CCCN(c2cc(F)c3cc(-c4cn5cccnc5n4)c(=O)oc3c2)CC1` [Compound 335, 5-fluoro-3-(imidazo[1,2-a]pyrimidin-2-yl)-7-(4-methyl-1,4-diazepan-1-yl)-2H-chromen-2-one], for which the melting point is 300 to 302 °C. In addition, in the data set on Smn protein (setting [2]), the EC1.5x (concentration giving 1.5-fold Smn protein increase) fell in the range of 1000 to 3000 nM. Moreover, the “maximum fold (Fold) increase” value in the data set with Smn protein (setting [3]) is “*** (fold increase between >1.35 and ≤1.5)”. In data set [1] (setting [4]), the EC (1.5-fold) fell in the range of 0.1 to 0.3 µM.
`Cc1cn2cc(-c3cc4ccc(CCCNCc5ccncc5)cc4oc3=O)nc2c(C)n1` [Compound 936, 3-(6,8-dimethylimidazo[1,2-a]pyrazin-2-yl)-7-{3-[(pyridin-4-ylmethyl)amino]propyl}-2H-chromen-2-one]: the melting point fell in the range of 155 to 159 °C. Further, the EC1.5x (concentration giving 1.5-fold Smn protein increase) in the data set on Smn protein (setting [2]) is less than 300 nM. In the data set with Smn protein (setting [3]), the “maximum fold (Fold) increase” value was “***** (fold increase >1.65)”. The EC (1.5-fold) in data set [1] (setting [4]) is less than 0.1 µM.
In turn, `Cc1cc2cc(-c3cc4ccc(N5CCN6CCC[C@H]6C5)cc4oc3=O)oc2c(C)n1` [Compound 745, 3-(5,7-dimethylfuro[2,3-c]pyridin-2-yl)-7-[(8aS)-hexahydropyrrolo[1,2-a]pyrazin-2(1H)-yl]-2H-chromen-2-one] gave a melting point of 203 to 205 °C. For the same compound, in the data set with Smn protein (setting [2]), the EC1.5x (concentration giving 1.5-fold Smn protein increase) is less than 300 nM. For the same compound, in the data set with Smn protein (setting [3]), the “maximum fold (Fold) increase” value was “***** (fold increase >1.65)”. Besides, the EC (1.5-fold) in data set [1] (setting [4]) is less than 0.1 µM.
On to `CCc1cn2cc(-c3cc4ccc(N5CCNCC5)cc4oc3=O)nc2s1` [Compound 428, 3-(2-ethylimidazo[2,1-b][1,3]thiazol-6-yl)-7-(piperazin-1-yl)-2H-chromen-2-one], for which the melting point was 231 to 236 °C. For the same compound, the “maximum fold (Fold) increase” value with Smn protein (setting [3]) was “* (maximum fold increase of ≤1.2)”. Also, in data set [1] (setting [4]), the EC (1.5-fold) is 1 to 3 µM.
Regarding `Cc1nccn2cc(-c3cc4ccc(N5CCCN(C)CC5)cc4oc3=O)nc12` [Compound 558, 7-(4-methyl-1,4-diazepan-1-yl)-3-(8-methylimidazo[1,2-a]pyrazin-2-yl)-2H-chromen-2-one], the melting point lay in the range of 180 to 182 °C. Moreover, the EC1.5x (concentration giving 1.5-fold Smn protein increase) with Smn protein (setting [2]) was 300 to 1000 nM. Besides, in the data set on Smn protein (setting [3]), the “maximum fold (Fold) increase” value was “**** (fold increase between >1.5 and ≤1.65)”. In data set [1] (setting [4]), the EC (1.5-fold) is less than 0.1 µM.
Take `COc1ccc(-c2cc3ccc(N4CCNCC4)cc3oc2=O)cc1OC` [Cpd 316, 3-(3,4-dimethoxyphenyl)-7-(piperazin-1-yl)-2H-chromen-2-one]: the melting point lay within 168 to 170 °C. Besides, in the data set on Smn protein (setting [3]), the “maximum fold (Fold) increase” value is “** (fold increase between >1.2 and ≤1.35)”. The EC (1.5-fold) in data set [1] (setting [4]) lay in the range of 0.3 to 1 µM.
On to `CCN1CCC(c2ccc3cc(-c4cn5cc(C)nc(C)c5n4)c(=O)oc3c2)CC1` [Compound 749, 3-(6,8-dimethylimidazo[1,2-a]pyrazin-2-yl)-7-(1-ethylpiperidin-4-yl)-2H-chromen-2-one], for which the melting point was in the range of 218 to 223 °C. In the data set on Smn protein (setting [2]), the EC1.5x (concentration giving 1.5-fold Smn protein increase) is less than 300 nM. Further, the “maximum fold (Fold) increase” value with Smn protein (setting [3]) is reported as “***** (fold increase >1.65)”. The EC (1.5-fold) in data set [1] (setting [4]) is less than 0.1 µM.
The compound `Cc1cn2cc(-c3cc4ccc(N5C[C@H]6CCCN[C@H]6C5)cc4oc3=O)nc2c(C)n1` [Compound 781, 3-(6,8-dimethylimidazo[1,2-a]pyrazin-2-yl)-7-[(4aR,7aR)-octahydro-6H-pyrrolo[3,4-b]pyridin-6-yl]-2H-chromen-2-one] gave a melting point of 246 to 252 °C. Besides, in the data set with Smn protein (setting [3]), the “maximum fold (Fold) increase” value is “** (fold increase between >1.2 and ≤1.35)”. In addition, in data set [1] (setting [4]), the “EC1.5x for production of full length SMN2 mRNA” value is recorded as “***** (EC1.5x≤0.1 μM)”.
`Cc1ccc2nc(-c3cc4ccc(N5CCCC(N(C)C)C5)cc4oc3=O)cn2c1` (centres unmarked) [Compound 200, 7-[3-(dimethylamino)piperidin-1-yl]-3-(6-methylimidazo[1,2-a]pyridin-2-yl)-2H-chromen-2-one]: the melting point lay in the range of 167 to 169 °C. Moreover, the “maximum fold (Fold) increase” value with Smn protein (setting [3]) is given as “* (maximum fold increase of ≤1.2)”. In addition, the EC (1.5-fold) in data set [1] (setting [4]) was in the range of 3 to 30 µM.
For `Cc1cn2cc(-c3cc4ccc(N5CCCN(C)CC5)cc4oc3=O)nc2cn1` [Compound 493, 7-(4-methyl-1,4-diazepan-1-yl)-3-(6-methylimidazo[1,2-a]pyrazin-2-yl)-2H-chromen-2-one], the melting point lay in the range of 234 to 235 °C. In the data set on Smn protein (setting [2]), the EC1.5x (concentration giving 1.5-fold Smn protein increase) is less than 300 nM. Moreover, in the data set with Smn protein (setting [3]), the “maximum fold (Fold) increase” value is given as “***** (fold increase >1.65)”. The EC (1.5-fold) in data set [1] (setting [4]) was less than 0.1 µM.
With `CN1CCCN(c2ccc3cc(-c4cn5cc(C6CC6)cc(F)c5n4)c(=O)oc3c2)CC1` [Compound 499, 3-(6-cyclopropyl-8-fluoroimidazo[1,2-a]pyridin-2-yl)-7-(4-methyl-1,4-diazepan-1-yl)-2H-chromen-2-one], the melting point lay within 234 to 244 °C. The “maximum fold (Fold) increase” value in the data set with Smn protein (setting [3]) was “* (maximum fold increase of ≤1.2)”. Further, the EC (1.5-fold) in data set [1] (setting [4]) is 0.3 to 1 µM.
